Reference: patent publication US20260035367A1 (Celgene Corporation, priority 2021, published 2026)
Read-outs that look alike come from different tables or passages of the source.

How the values were obtained:
[1] = molecular target: T1, Recombinant human PKC-theta (His-tagged 362-706) (Homo sapiens, UniProt Q04759); assay: PKC-theta inhibition assay (HTRF KinEASE kit); format: biochemical; conditions: ATP 6.5 μM, STK substrate 525 nM
T1 construct: Recombinant human PKC-theta (His-tagged 362-706); His
T1 sequence (Q04759 362-706): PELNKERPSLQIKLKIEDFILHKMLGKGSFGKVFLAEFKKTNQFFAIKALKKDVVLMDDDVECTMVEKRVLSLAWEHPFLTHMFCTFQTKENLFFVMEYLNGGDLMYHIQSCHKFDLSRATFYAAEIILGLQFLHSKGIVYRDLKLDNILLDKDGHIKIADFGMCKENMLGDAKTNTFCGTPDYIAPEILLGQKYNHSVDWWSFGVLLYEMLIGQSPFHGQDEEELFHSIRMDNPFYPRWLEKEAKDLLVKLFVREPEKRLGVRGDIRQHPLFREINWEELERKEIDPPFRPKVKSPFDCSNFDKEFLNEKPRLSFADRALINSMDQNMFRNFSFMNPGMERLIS
In short: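 IC50 values were from 4-parameter logistic fits of percent inhibition, based on acceptor/donor HTRF ratios over 10 semi-log compound doses. Kinase reactions, started with substrate plus ATP, ran 30 min at 25 °C in buffer supplemented with 10 mM MgCl2, 1 mM DTT and 0.1% Tween 20; detection lasted 2 h.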

[2] = molecular target: T2, Recombinant human PKC-delta (His-tagged 345-676) (Homo sapiens, UniProt Q05655); assay: PKC-delta inhibition assay (HTRF KinEASE kit); format: biochemical; conditions: ratio, PKC-theta vs PKC-delta HTRF; for PKC-theta/PKC-delta selectivity (binned): binned A to G
T2 construct: PKC-delta (His-tagged 345-676); His
T2 sequence (Q05655 345-676): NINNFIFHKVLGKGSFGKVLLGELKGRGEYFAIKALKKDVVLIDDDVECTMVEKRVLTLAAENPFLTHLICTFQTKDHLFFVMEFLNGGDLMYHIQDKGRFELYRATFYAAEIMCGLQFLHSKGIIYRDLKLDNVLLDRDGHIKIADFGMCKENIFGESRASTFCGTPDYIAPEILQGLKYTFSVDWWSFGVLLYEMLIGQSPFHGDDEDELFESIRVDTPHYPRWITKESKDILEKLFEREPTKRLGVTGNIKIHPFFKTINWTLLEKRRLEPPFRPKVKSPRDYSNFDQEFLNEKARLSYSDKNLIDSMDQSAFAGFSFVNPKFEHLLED

[3] = system: IL-2 secretion by human effector memory T cells (TEM); assay: Effector memory T cells IL-2 release assay (CD3/CD28 stimulation, HTRF IL-2 detection); format: cell-based; conditions: Homo sapiens, T-cell, 24 h
In short: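 IL-2 released into the supernatant was quantified by HTRF after 24 h at 37 °C in 5% CO2. The cells were stimulated primary human TEM from donor buffy coats, treated with a 10-point semi-log compound series (0.1% DMSO final, triplicates).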

[4] = binned A to H, read-out: PKC-theta HTRF pIC50 (binned) (converted)
[5] = read-out: PKC-theta HTRF pIC50 (converted)
[6] = binned A to G, read-out: PKC-theta IL2 pIC50 (binned) (converted)
[7] = read-out: PKC-theta IL2 pIC50 (converted)

| Compound | IC50 [1, 4] | IC50 [1, 5] | PKC-theta/PKC-delta selectivity [2] | PKC-theta/PKC-delta selectivity (binned) [2] | IC50 [3, 6] | IC50 [3, 7] |
| --- | --- | --- | --- | --- | --- | --- |
| CC1(C)C(=O)Nc2nccc(-c3cccc(N4CCNCC4)c3Cl)c21 [Example 48] | > 1000 nM | 1580 nM | 1 | G (a ratio of 0 to 1) | > 1000 nM | 10000 nM |
| CC1(Cc2ccccc2)C(=O)Nc2nccc(-c3cccc(N4CCNCC4)c3)c21 (stereo not drawn) [Example 49] | 316 to 1000 nM | 1000 nM | 1 | F (a ratio of between 1 and 5) | > 1000 nM | 3980 nM |
| CC(C)[C@H]1CN(c2cccc(-c3ccnc4c3C(C)(C)C(=O)N4)c2)CCN1 [Example 50] | 31.6 to 100 nM | 79.4 nM | 2 | F (a ratio of between 1 and 5) | > 1000 nM | 1000 nM |
| CC[C@H]1CN(c2cccc(-c3ccnc4c3C(C)(C)C(=O)N4)c2)CCN1 [Example 51] | 31.6 to 100 nM | 79.4 nM | 3 | F (a ratio of between 1 and 5) | > 1000 nM | 1260 nM |
| C[C@H]1CN(c2cccc(-c3ccnc4c3C(C)(C)C(=O)N4)c2)CCN1 [Example 52] | 100 to 316 nM | 126 nM | 2 | F (a ratio of between 1 and 5) | > 1000 nM | 1580 nM |
| CC1(C)C(=O)Nc2nccc(-c3cc(C#N)cc(N4CCNCC4)c3)c21 [Example 53] | 100 to 316 nM | 251 nM | 3 | F (a ratio of between 1 and 5) | > 1000 nM | 1580 nM |
| C[C@@H]1CN(c2cccc(-c3ccnc4c3C(C)(C)C(=O)N4)c2)CCN1 [Example 54] | 31.6 to 100 nM | 100 nM | 3 | F (a ratio of between 1 and 5) | > 1000 nM | 2000 nM |
| CC1(O)C(=O)Nc2nccc(-c3cc(Cl)cc(N4CCNCC4)c3)c21 (stereo not drawn) [Example 55] | 10 to 31.6 nM | 10 nM | 9 | E (a ratio of between 5 and 10) | 316 to 1000 nM | 398 nM |
| CC1(O)C(=O)Nc2nccc(-c3cc(N4CCNCC4)cc(C(F)(F)F)c3)c21 (stereo not drawn) [Example 56] | 10 to 31.6 nM | 20 nM | 14 | D (a ratio of between 10 and 20) | 316 to 1000 nM | 794 nM |
| COC1(C)C(=O)Nc2nccc(-c3cc(F)cc(N4CCNCC4)c3)c21 (stereo not drawn) [Example 57] | 31.6 to 100 nM | 50.1 nM | 6 | E (a ratio of between 5 and 10) | 316 to 1000 nM | 631 nM |
| C[C@H]1CNCCN1c1cc(F)cc(-c2ccnc3c2C(C)(O)C(=O)N3)c1 (stereo partly drawn) [Example 58] | 10 to 31.6 nM | 12.6 nM | 7 | E (a ratio of between 5 and 10) | 316 to 1000 nM | 316 nM |
| C[C@@H]1CNCCN1c1cc(F)cc(-c2ccnc3c2C(C)(O)C(=O)N3)c1 (stereo partly drawn) [Example 59] | 3.16 to 10 nM | 5.01 nM | 5 | F (a ratio of between 1 and 5) | 100 to 316 nM | 126 nM |
| CC1(O)C(=O)Nc2nccc(-c3cc(N4CCNCC4)ccc3F)c21 (stereo not drawn) [Example 60] | 100 to 316 nM | 126 nM | 4 | F (a ratio of between 1 and 5) | > 1000 nM | 1580 nM |
| Cc1cc(-c2ccnc3c2C(C)(C)C(=O)N3)cc(N2CCNCC2)c1 [Example 61] | 31.6 to 100 nM | 50.1 nM | 6 | E (a ratio of between 5 and 10) | 316 to 1000 nM | 794 nM |
| CC1(C)C(=O)Nc2ncc(C#N)c(-c3cc(F)cc(N4CCNCC4)c3)c21 [Example 64] | 316 to 1000 nM | 501 nM | 2 | F (a ratio of between 1 and 5) | > 1000 nM | 5010 nM |
| CC1(C)C(=O)Nc2nccc(-c3cc(Cl)cc(N4CCNCC4)n3)c21 [Example 65] | 1 to 3.16 nM | 2 nM | 14 | D (a ratio of between 10 and 20) | 100 to 316 nM | 200 nM |
| CC1(C)C(=O)Nc2nccc(-c3cc(C(F)(F)F)cc(N4CCNCC4)n3)c21 [Example 66] | 3.16 to 10 nM | 5.01 nM | 13 | D (a ratio of between 10 and 20) | 31.6 to 100 nM | 79.4 nM |
| CC1(C)C(=O)Nc2nccc(-c3cccc(N4CCNC(Cc5cccnc5)C4)c3)c21 (stereo not drawn) [Example 67] | 31.6 to 100 nM | 50.1 nM | 3 | F (a ratio of between 1 and 5) | > 1000 nM | 1000 nM |
| O=c1[nH]c2nccc(-c3cc(C(F)(F)F)cc(N4CCNCC4)n3)c2[nH]1 [Example 68] | 31.6 to 100 nM | 31.6 nM | 11 | D (a ratio of between 10 and 20) | 316 to 1000 nM | 501 nM |
| CC1(C)C(=O)Nc2ncc(Br)c(-c3cc(F)cc(N4CCNCC4)c3)c21 [Example 69] | 31.6 to 100 nM | 39.8 nM | 1 | F (a ratio of between 1 and 5) | 316 to 1000 nM | 398 nM |
| CC1(C)C(=O)Nc2nccc(-c3cc(C(F)(F)F)cc(C4(CO)CCNC4)n3)c21 (stereo not drawn) [Example 70] | 1 to 3.16 nM | 2.51 nM | 30 | B (a ratio of between 30 and 50) | 316 to 1000 nM | 398 nM |
| CC[C@H]1CN(c2cc(C(F)(F)F)cc(-c3ccnc4c3C(C)(O)C(=O)N4)n2)CCN1 (stereo partly drawn) [Example 71] | 1 to 3.16 nM | 1.26 nM | 12 | D (a ratio of between 10 and 20) | 31.6 to 100 nM | 31.6 nM |
| CC[C@@H]1CN(c2cc(C(F)(F)F)cc(-c3ccnc4c3C(C)(O)C(=O)N4)n2)CCN1 (stereo partly drawn) [Example 72] | 10 to 31.6 nM | 25.1 nM | 12 | D (a ratio of between 10 and 20) | 100 to 316 nM | 316 nM |
| C[C@@H]1CN(c2cc(Cl)cc(-c3ccnc4c3C(C)(O)C(=O)N4)n2)CCN1 (stereo partly drawn) [Example 73] | 3.16 to 10 nM | 6.31 nM | 11 | D (a ratio of between 10 and 20) | 100 to 316 nM | 126 nM |
| C[C@H]1CN(c2cc(Cl)cc(-c3ccnc4c3C(C)(O)C(=O)N4)c2)CCN1 (stereo partly drawn) [Example 75] | 3.16 to 10 nM | 7.94 nM | 11 | D (a ratio of between 10 and 20) | 100 to 316 nM | 158 nM |
| C[C@@H]1CN(c2cc(Cl)cc(-c3ccnc4c3C(C)(O)C(=O)N4)c2)CCN1 (stereo partly drawn) [Example 76] | 31.6 to 100 nM | 50.1 nM | 11 | D (a ratio of between 10 and 20) | 316 to 1000 nM | 794 nM |
| C[C@@H]1CN(c2cc(-c3ccnc4c3C(C)(O)C(=O)N4)cc(C(F)(F)F)c2)CCN1 (stereo partly drawn) [Example 77] | 31.6 to 100 nM | 100 nM | 12 | D (a ratio of between 10 and 20) | > 1000 nM | 2510 nM |
| C[C@H]1CN(c2cc(-c3ccnc4c3C(C)(O)C(=O)N4)cc(C(F)(F)F)c2)CCN1 (stereo partly drawn) [Example 78] | 10 to 31.6 nM | 15.8 nM | 11 | D (a ratio of between 10 and 20) | 100 to 316 nM | 158 nM |
| CC1(C)C(=O)Nc2ncc(Cl)c(-c3cc(F)cc(N4CCNCC4)c3)c21 [Example 79] | 31.6 to 100 nM | 39.8 nM | 2 | F (a ratio of between 1 and 5) | 316 to 1000 nM | 794 nM |
| CC1(O)C(=O)Nc2nccc(-c3cc(C(F)(F)F)cc(N4CCNCC4)n3)c21 (stereo not drawn) [Example 80] | 3.16 to 10 nM | 6.31 nM | 12 | D (a ratio of between 10 and 20) | 31.6 to 100 nM | 79.4 nM |
